Measurements reported in ChEMBL document CHEMBL1150841, “Mirabilin G: a new alkaloid from a southern Australian marine sponge, Clathria species” (J Nat Prod, 2001).
Active and inactive are the calls of the source.

Tests used:
Assay type in all cases: functional, organism-based
[1] = test system: Serratia marcescens; experiment: Antimicrobial activity against Serratia marcescens
[2] = test system: Saccharomyces cerevisiae; experiment: Antimicrobial activity against Saccharomyces cerevisiae
[3] = test system: Escherichia coli; experiment: Antimicrobial activity against Escherichia coli

Measured: inhibition

CCCC/C=C/C1=C2NC(=N)N[C@H]3CC[C@@H](C[C@@H]1C)[C@@H]23
active: all assays above
